# According to patent US6967196B1, “Sulfonamide compounds and uses thereof” (Bristol-Myers Squibb Company, priority 1999, dated 2005):
# Counter-ions that a name gives are not always drawn. Like-named read-outs stand apart in the source and are kept apart here.
# Tested on: amyloid β production in transfected H4 (human neuroglioma) cells stably expressing APP constructs
# Experiment: In vitro cell-based assay of inhibitors of amyloid β production (ELISA)
# Conditions: amyloid β in medium by ELISA
# Procedure, shortened: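 H4 neuroglioma cells stably expressing APP constructs were dosed in fresh medium, screened initially at 10-100 μM, and incubated ~16 h. Medium Aβ was measured by ELISA with C-terminal-epitope capture and N-terminal detection antibodies, quantified from a standard curve, with dose-response testing of actives.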
# [1] = Homo sapiens, 16 h, transfected H4 cells stably expressing APP constructs, approximately 16 hours incubation, read-out: ACTIVITY (IC50, inhibition of amyloid β production)
# [2] = Homo sapiens, 16 h, transfected H4 cells stably expressing APP, approximately 16 hours incubation, read-out: ACTIVITY (IC50, inhibition of amyloid β production)
# [3] = transfected H4 cells stably expressing APP, approximately 16 hours incubation, read-out: ACTIVITY (IC50, inhibition of amyloid β production)
# [4] = transfected H4 cells stably expressing APP, approximately 16 hours incubation, Table B, read-out: ACTIVITY (IC50, inhibition of amyloid β production)
# [5] = transfected H4 cells stably expressing APP, approx. 16 h incubation, read-out: ACTIVITY (IC50, inhibition of amyloid β production)
# [6] = transfected H4 cells stably expressing APP, approximately 16 hours incubation, hydrochloride, read-out: ACTIVITY (IC50, inhibition of amyloid β production)
# [7] = transfected H4 cells stably expressing APP constructs, approximately 16 hours incubation, read-out: ACTIVITY (IC50, inhibition of amyloid β production)
# [8] = Homo sapiens, 16 h, transfected H4 cells stably expressing APP, approx. 16 h incubation, read-out: ACTIVITY (IC50, inhibition of amyloid β production)
compound,measurement,setting,value
"CN(C)CCCOc1ccccc1CN(c1ccccc1)S(=O)(=O)c1ccccc1[N+](=O)[O-] [Example 1084, N-{2-[3-(dimethylamino)propoxy]benzyl}-2-nitro-N-phenylbenzenesulfonamide]",IC50,[1],> 10 µM
"CN1CCCCC1CCOc1ccccc1CN(c1ccccc1)S(=O)(=O)c1ccc(Cl)cc1 (stereo not shown) [Example 889, 4-chloro-N-{2-[2-(1-methyl-2-piperidinyl)ethoxy]benzyl}-N-phenylbenzenesulfonamide hydrochloride]",IC50,[2],> 0.5 µM
"2-((1R)-1-{[(4-chlorophenyl)sulfonyl]-2,5-difluoroanilino}ethyl)benzyl 3-fluorobenzylcarbamate [Example 910]",IC50,[3],> 0.5 µM
"COc1ccccc1C(=O)N1CCCCC1CCOc1ccccc1CN(c1cc(F)ccc1F)S(=O)(=O)c1ccc(Cl)cc1 (stereo not shown) [Example 902, 4-chloro-N-(2,5-difluorophenyl)-N-(2-{2-[1-(2-methoxybenzoyl)-2-piperidinyl]ethoxy}benzyl)benzenesulfonamide]",IC50,[2],> 0.5 µM
"CNC(=O)CCCc1cc(F)ccc1[C@@H](C)N(c1cc(F)ccc1F)S(=O)(=O)c1ccc(Cl)cc1 [Example 498, 4-[2-((1R)-1-{[(4-chlorophenyl)sulfonyl]-2,5-difluoroanilino}ethyl)-5-fluorophenyl]-N-methylbutanamide]",IC50,[4],0.1 to 0.5 µM
"3-[2-((1R)-1-{[(4-chlorophenyl)sulfonyl]-2,5-difluoroanilino}ethyl)phenyl]propyl phenylcarbamate [Example 730]",IC50,[5],0.1 to 0.5 µM
"CCN(CC)C(=O)N(C)CCCOc1ccccc1CN(c1cc(F)ccc1F)S(=O)(=O)c1ccc(Cl)cc1 [Example 849, 4-chloro-N-(2-{3-[[(diethylamino)carbonyl](methyl)amino]propoxy}benzyl)-N-(2,5-difluorophenyl)benzenesulfonamide]",IC50,[2],0.1 to 0.5 µM
"C[C@H](CCCS(N)(=O)=O)N(c1cc(Cl)ccc1CO)S(=O)(=O)c1ccc(Cl)cc1 [Example 1235, 4-chloro-N-[5-chloro-2-(hydroxymethyl)phenyl]-N-[4-(aminosulfonyl)-1(R)-methylbutyl]benzenesulfonamide]",IC50,[1],≤ 0.025 µM
"CCC[C@@H](C)N(Cc1ccccc1OCCCN1CCCCC1)S(=O)(=O)c1ccc(Cl)cc1 [Example 867, 4-chloro-N-[(1R)-1-methylbutyl]-N-{2-[3-(1-piperidinyl)propoxy]benzyl}benzenesulfonamide hydrochloride]",IC50,[6],0.1 to 0.5 µM
C[C@H](CCCS(=O)(=O)Cl)N(c1cc(Cl)ccc1Cl)S(=O)(=O)c1ccc(Cl)cc1 [Example 18],IC50,"Table B, transfected H4 cells stably expressing APP, approximately 16 hours incubation, read-out: ACTIVITY (inhibitory concentration IC50, inhibition of amyloid β production)",≤ 0.025 µM
"COC(=O)[C@@H](NC(=O)CCC[C@@H](C)N(c1cc(Cl)ccc1F)S(=O)(=O)c1ccc(Cl)cc1)C(C)C [Example 1264, (R)-4-Chloro-N-(5-chloro-2-fluorophenyl)-N-[5-[N-(S)-[1-(methoxycarbonyl)-2-methylpropyl]amino]-1-methyl-6-oxopentyl]benzenesulfonamide]",IC50,[7],0.1 to 0.5 µM
C[C@H](C(=O)NC1CCCc2ccccc21)N(c1cc(Cl)ccc1F)S(=O)(=O)c1ccc(Cl)cc1 (stereo partly shown) [Example 1309],IC50,"Homo sapiens, 16 h, transfected H4 cells expressing APP, approximately 16 hours incubation, read-out: ACTIVITY (IC50, inhibition of amyloid β production)",> 0.5 µM
"N-{3-[2-(1-{[(4-chlorophenyl)sulfonyl]-2,5-difluoroanilino}ethyl)phenoxy]propyl}-N-methyl-4-(trifluoromethyl)benzamide [Example 703]",IC50,[5],0.1 to 0.5 µM
"CS(=O)(=O)c1ccc(N(Cc2ccccc2OCCCN2CCCCC2)S(=O)(=O)c2ccc(Cl)cc2)cc1 [Example 1094, 4-chloro-N-[4-(methylsulfonyl)phenyl]-N-{2-[3-(1-piperidinyl)propoxy]benzyl}benzenesulfonamide hydrochloride]",IC50,[1],> 10 µM
"COc1ccc(C(=O)N2CCCCC2CCOc2ccccc2CN(c2cc(F)ccc2F)S(=O)(=O)c2ccc(Cl)cc2)cc1OC (stereo not shown) [Example 890, 4-chloro-N-(2,5-difluorophenyl)-N-(2-{2-[1-(3,4-dimethoxybenzoyl)-2-piperidinyl]ethoxy}benzyl)benzenesulfonamide]",IC50,[2],> 0.5 µM
"N-{3-[2-(1-{[(4-chlorophenyl)sulfonyl]-2,5-difluoroanilino}ethyl)phenoxy]propyl}-2,6-difluoro-N-methylbenzamide [Example 755]",IC50,[5],0.1 to 0.5 µM
"CC(C)NC(=O)N(C)CCOc1ccccc1C(C)N(c1cc(F)ccc1F)S(=O)(=O)c1ccc(Cl)cc1 (stereo not shown) [Example 695, 4-chloro-N-(2,5-difluorophenyl)-N-[1-(2-{2-[[(isopropylamino)carbonyl](methyl)amino]ethoxy}phenyl)ethyl]benzenesulfonamide]",IC50,[8],0.1 to 0.5 µM
"2-chloro-N-{3-[2-(1-{[(4-chlorophenyl)sulfonyl]-2,5-difluoroanilino}methyl)phenoxy]propyl}-N-methylbenzamide [Example 774]",IC50,[5],0.1 to 0.5 µM
"O=S(=O)(c1ccccc1)N(Cc1ccccc1OCCCN1CCC(O)C1)c1ccccc1 (stereo not shown) [Example 279, N-{2-[3-(3-hydroxy-1-pyrrolidinyl)propoxy]benzyl}-N-phenylbenzenesulfonamide Hydrochloride]",IC50,[4],0.025 to 0.05 µM
"C[C@H](CCN1CCSC1C(=O)O)N(c1cc(Cl)ccc1Cl)S(=O)(=O)c1ccc(Cl)cc1 (stereo partly drawn) [Example 1111, 4-chloro-N-(2,5-dichlorophenyl)-N-[3-(2-carboxy-3-thiazolidinyl)-1(R)-methylpropyl]benzenesulfonamide]",IC50,[1],0.025 to 0.05 µM
"CSc1cccc(N(Cc2ccccc2OCCCN2CCCCC2)S(=O)(=O)c2ccc(Cl)cc2)c1 [Example 952, 4-chloro-N-[3-(methylsulfanyl)phenyl]N-{2-[3-(1-piperidinyl)propoxy]benzyl}benzenesulfonamide hydrochloride]",IC50,[2],> 0.5 µM
ethyl 3-(2-{[(phenylsulfonyl)anilino]methyl}phenyl)propanoate [Example 995],IC50,[3],> 0.5 µM
"4-chloro-N-(2,5-difluorophenyl)-N-((1R)-1-{2-[3-(1H-imidazol-1-yl)propoxy]-6-methoxybenzyl}benzenesulfonamide hydrochloride [Example 911]",IC50,[3],> 0.5 µM
"2,4-dichloro-N-{3-[2-({[(4-chlorophenyl)sulfonyl]-2,5-difluoroanilino}methyl)phenoxy]propyl}-5-fluoro-N-methylbenzamide [Example 896]",IC50,[3],> 0.5 µM
"CCC[C@@H](C)N(Cc1ccccc1OCCCN1CCCCC1)S(=O)(=O)c1ccc(Cl)cc1 [Example 980, 4-chloro-N-[(1R)-1-methylbutyl]-N-{2-[3-(1-piperidinyl)propoxy]benzyl}benzenesulfonamide hydrochloride]",IC50,[6],> 0.5 µM
"2-((1R)-1-{[(4-chlorophenyl)sulfonyl]-2,5-difluoroanilino}ethyl)benzyl benzyl[2-(dimethylamino)ethyl]carbamate [Example 838]",IC50,[3],0.1 to 0.5 µM
"N-{3-[2-({[(4-chlorophenyl)sulfonyl]-2,5-difluoroanilino}methyl)phenoxy]propyl}-3,4-dimethoxy-N-methylbenzamide [Example 960]",IC50,[3],> 0.5 µM
"C[C@H](c1ccccc1CCCn1cncn1)N(c1cc(F)ccc1F)S(=O)(=O)c1ccc(Cl)cc1 [Example 1066, 4-chloro-N-(2,5-difluorophenyl)-N-((1R)-1-{2-[3-(1H-1,2,4-triazol-1-yl)propyl]phenyl}ethyl)benzenesulfonamide]",IC50,[2],> 0.5 µM
"COC(=O)[C@@H](CC(C)C)NC(=O)CCC[C@@H](C)N(c1cc(Cl)ccc1F)S(=O)(=O)c1ccc(Cl)cc1 [Example 1267, (R)-4-Chloro-N-(5-chloro-2-fluorophenyl)-N-[5-[N-(R)-[1-(methoxycarbonyl)-3-methylbutyl]amino]-1-methyl-5-oxopentyl]benzenesulfonamide]",IC50,[7],0.025 to 0.05 µM
"O=S(=O)(c1ccc(Cl)cc1)N(Cc1ccccc1OCCCN1CCSCC1)c1ccccc1 [Example 937, 4-chloro-N-phenyl-N-{2-[3-(4-thiomorpholinyl)propoxy]benzyl}benzenesulfonamide hydrochloride]",IC50,[2],> 0.5 µM
"O=S(=O)(c1ccc(Cl)cc1)N(Cc1ccccc1OCCCn1ccnc1)c1cc(Cl)ccc1Cl [Example 740, 4-chloro-N-(2,5-dichlorophenyl)-N-{2-[3-(1H-imidazol-1-yl)propoxy]benzyl}benzenesulfonamide hydrochloride]",IC50,[8],0.1 to 0.5 µM
"N-{3-[2-(1-{[(4-chlorophenyl)sulfonyl]-2,5-difluoroanilino}ethyl)phenoxy]propyl}-4-nitrobenzamide [Example 805]",IC50,[5],0.1 to 0.5 µM
"N-{3-[2-(1-{[(4-chlorophenyl)sulfonyl]-2,5-difluoroanilino}ethyl)phenoxy]propyl}-4-iodo-N-methylbenzamide [Example 719]",IC50,[5],0.1 to 0.5 µM
"CC(COc1ccccc1CN(c1ccccc1)S(=O)(=O)c1ccc(Cl)cc1)N1CCC1 (stereo not shown) [Example 918, N-{2-[2-(1-azetidinyl)propoxy]benzyl}-4-chloro-N-phenylbenzenesulfonamide hydrochloride]",IC50,[2],> 0.5 µM
